Test results as given in patent publication US20140378460A1, “COMPOSITIONS AND METHODS FOR TREATING NEURODEGENERATIVE DISEASE” (COGNITION THERAPEUTICS, INC., priority 2011, published 2014).
Read-outs that look alike come from different tables or passages of the source.

What was measured:
[1] = molecular target: NMDAR2B (Homo sapiens, UniProt Q13224); details: cited from earlier work
[2] = tested on: Na + ch2; details: cited from earlier work
[3] = molecular target: Sigma-1 receptors; details: cited from earlier work; for Ki: Table 11E, clinical compounds, first figure of S1/S2, read-out: Sigma Affinity (S1); for Sigma 1 (Type of Activity): known prior art compounds
[4] = molecular target: Sigma-2 receptors; details: cited from earlier work; for Ki: Table 11E, clinical compounds, second figure of S1/S2, read-out: Sigma Affinity (S2)
[5] = tested on: muscarinic M1-M4; details: cited from earlier work
[6] = tested on: Abeta oligomer-induced synapse loss in primary hippocampal neurons; test: Synapse loss assay; format: cell-based, rat
Procedure: In this assay, Abeta oligomers were brought in contact with mature primary neurons in culture and their binding was determined by immunohistochemistry (anti-Abeta antibody) and quantified by image processing. The amount of Abeta in neuronal dendrites is assessed by counting the number of labeled puncta on the neuritis. […] This labeling is associated with synapses, co-localizing with the post-synaptic scaffold protein PSD-95 (Lacor et al., '04). […] The number of synapses can also be quantified in this assay by immunofluorochemistry. Similar procedures for binding assays can be found in the literature. […] Review.
Primary hippocampal neuronal culture was established as in the membrane trafficking assay above. […] Pretreatment with compounds to be tested lasted for 1 hr and addition of Abeta oligomers or no oligomer (vehicle alone) in a final concentration of 70 ul was followed by incubation for an additional 23 hrs.
The plates were then washed 3× with PBS for 5 min each. The plates were blocked at RT for 1 hr in 5% goat serum and 0.5% Triton X-100 in PBS. […] Primary antibodies were incubated overnight at 4° C. The plates were then washed 3× with PBS for 5 min each. […] Secondary antibodies were incubated at RT for 1 hr. The plates were washed once with PBS. DAPI (4′,6-diamidino-2-phenylindole, Invitrogen) was then applied at 0.03 ug/ul and incubated at RT for 5 min, then washed with PBS.

[7] = tested on: Abeta oligomer-induced membrane trafficking deficits in primary hippocampal neurons; test: Membrane trafficking/exocytosis (MTT) assay; format: cell-based, rat; details: for EC50: known prior art compounds, read-out: Inhibition Abeta oligomer-induced Membrane Trafficking EC50
Procedure: The methods used to generate the results were as follows in the Membrane Trafficking/Exocytosis (MTT) assay.
Primary hippocampal neurons from E18 Sprague-Dawley rat embryos were plated at optimized concentrations in 384 well plates in NB media (Invitrogen). Neurons were maintained in cultures for 3 weeks, with twice weekly feeding of NB media with N2 supplement (Invitrogen).
A test compound was added to cells at concentrations ranging from 100 uM to 0.001 nM followed by addition of vehicle or Abeta oligomer preparations (3 μM total Abeta protein concentration), and incubated for 1 to 24 hr at 37° C. in 5% CO2. MTT reagent (3-(4,5-dimethylthizaol-2-yl)-2,5diphenyl tetrazolium bromide) (Roche Molecular Biochemicals) was reconstituted in phosphate buffered saline to 5 mg/mL. 10 μl, of MTT labeling reagent is added to each well and incubated at 37° C. for 1 h, then imaged. Exocytosis was assessed by automated microscopy and image processing to quantify the amount of endocytosed and exocytosed formazan.
Each assay plate was formatted so that compounds are tested with and without Abeta oligomer on each plate.

[8] = list wraps over the rows below; first line given; cited from earlier work
[9] = molecular target: T1, Sigma-1 receptors (UniProt Q60492); details: cited from earlier work
T1 construct: other: known prior art compounds, published studies

[10] = molecular target: T2, sigma-2 receptor (Rattus norvegicus, UniProt Q5U3Y7); set-up: other: known prior art compounds, published studies; details: cited from earlier work
T2 sequence (Q5U3Y7 1-176): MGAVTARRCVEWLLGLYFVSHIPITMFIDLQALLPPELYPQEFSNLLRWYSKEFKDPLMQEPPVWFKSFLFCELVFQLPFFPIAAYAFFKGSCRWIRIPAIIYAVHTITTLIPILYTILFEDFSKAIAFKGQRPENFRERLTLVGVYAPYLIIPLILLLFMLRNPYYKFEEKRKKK

[11] = Drug-like properties of known compounds (BBB, oxidative metabolism); details: (Oxidative substr.; Not BBB, Ox Sub.); first line given
[12] = molecular target: serotonin transporter (Homo sapiens, UniProt P31645); details: cited from earlier work
Sequence of serotonin transporter (P31645 whole entry): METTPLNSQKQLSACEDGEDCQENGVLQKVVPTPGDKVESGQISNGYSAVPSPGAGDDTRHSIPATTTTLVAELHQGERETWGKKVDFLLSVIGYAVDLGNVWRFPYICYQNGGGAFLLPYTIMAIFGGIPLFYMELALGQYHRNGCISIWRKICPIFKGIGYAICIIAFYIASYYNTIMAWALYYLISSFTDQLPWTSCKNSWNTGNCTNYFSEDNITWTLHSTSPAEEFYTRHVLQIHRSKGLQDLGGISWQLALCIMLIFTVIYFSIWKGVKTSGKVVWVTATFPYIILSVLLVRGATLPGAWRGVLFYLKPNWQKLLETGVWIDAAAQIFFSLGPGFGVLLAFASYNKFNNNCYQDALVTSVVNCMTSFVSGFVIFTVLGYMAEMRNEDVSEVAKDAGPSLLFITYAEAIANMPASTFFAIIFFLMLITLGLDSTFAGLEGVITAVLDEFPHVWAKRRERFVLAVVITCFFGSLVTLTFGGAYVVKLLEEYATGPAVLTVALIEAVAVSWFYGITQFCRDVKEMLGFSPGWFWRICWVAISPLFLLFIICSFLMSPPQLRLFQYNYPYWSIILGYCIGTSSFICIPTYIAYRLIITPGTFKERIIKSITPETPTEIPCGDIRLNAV

[13] = molecular target: Adrenergic transporter (Homo sapiens, UniProt P23975); details: cited from earlier work
Sequence of Adrenergic transporter (P23975 whole entry): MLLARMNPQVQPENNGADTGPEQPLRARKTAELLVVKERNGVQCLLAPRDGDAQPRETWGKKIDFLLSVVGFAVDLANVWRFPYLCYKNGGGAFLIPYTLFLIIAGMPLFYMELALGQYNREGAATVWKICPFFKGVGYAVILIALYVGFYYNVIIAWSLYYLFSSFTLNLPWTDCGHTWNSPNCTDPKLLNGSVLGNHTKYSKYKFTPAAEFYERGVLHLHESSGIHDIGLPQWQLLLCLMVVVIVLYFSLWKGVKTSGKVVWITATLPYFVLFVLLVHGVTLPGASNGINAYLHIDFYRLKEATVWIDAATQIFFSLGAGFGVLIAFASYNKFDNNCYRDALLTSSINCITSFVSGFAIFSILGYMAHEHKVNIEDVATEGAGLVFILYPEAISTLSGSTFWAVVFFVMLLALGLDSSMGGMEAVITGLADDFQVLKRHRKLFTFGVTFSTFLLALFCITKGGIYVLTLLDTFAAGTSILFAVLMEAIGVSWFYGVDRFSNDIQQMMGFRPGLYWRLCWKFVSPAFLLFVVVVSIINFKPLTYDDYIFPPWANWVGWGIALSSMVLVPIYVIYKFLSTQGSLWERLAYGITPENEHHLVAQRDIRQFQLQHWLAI

[14] = molecular target: Dopamine transporter (Homo sapiens, UniProt Q01959); details: cited from earlier work
Sequence of Dopamine transporter (Q01959 whole entry): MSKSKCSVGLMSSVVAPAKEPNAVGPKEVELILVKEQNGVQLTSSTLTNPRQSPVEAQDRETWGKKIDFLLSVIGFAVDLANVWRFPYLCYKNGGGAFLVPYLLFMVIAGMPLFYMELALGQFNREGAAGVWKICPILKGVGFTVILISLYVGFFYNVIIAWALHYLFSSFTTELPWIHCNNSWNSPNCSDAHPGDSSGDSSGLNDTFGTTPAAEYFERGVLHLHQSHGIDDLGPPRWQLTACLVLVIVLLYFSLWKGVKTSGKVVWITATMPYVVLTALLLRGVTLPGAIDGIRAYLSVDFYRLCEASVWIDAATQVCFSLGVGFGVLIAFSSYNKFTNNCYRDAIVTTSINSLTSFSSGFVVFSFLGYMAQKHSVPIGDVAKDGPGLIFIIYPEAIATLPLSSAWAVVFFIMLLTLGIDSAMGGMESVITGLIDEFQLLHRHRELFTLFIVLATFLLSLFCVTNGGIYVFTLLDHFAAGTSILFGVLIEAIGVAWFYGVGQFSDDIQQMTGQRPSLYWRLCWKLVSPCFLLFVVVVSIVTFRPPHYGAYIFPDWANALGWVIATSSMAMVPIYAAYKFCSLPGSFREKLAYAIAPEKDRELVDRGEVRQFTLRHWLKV

[15] = tested on: SKOV-3 human ovarian cancer cell line; test: MTS tumor cell viability assay; format: cell-based
Procedure: The cytotoxicity of compounds shown below was determined using the CellTiter96 Aqueous One Solution Assay (Promega, Madison, Wis.). […] The plate was read at 490 nm in a Victor3 plate reader (PerkinElmer Life and Analytical Sciences, Shelton, Conn.). The EC^50 value, defined as the concentration of the sigma ligand required to inhibit cell viability by 50% relative to untreated cells, was determined from the dose response curve for each cell line.

[16] = tested on: caspase-3 in neuronal cultures; test: Caspase-3 activity in neurons; format: cell-based
[17] = tested on: caspase-3 in SKOV-3 human ovarian cancer cells; test: Caspase-3 activity in tumor cells; format: cell-based
[18] = tested on: neuronal cultures
[19] = tested on: K+ ch; details: b58; cited from earlier work
[20] = Table 11D, read-out: Membrane trafficking IC50
[21] = Table 11C, read-out: S1 binding Ki
[22] = Table 11D, read-out: Sigma-1 Receptor Ki
[23] = known prior art compounds, published studies, read-out: Sigma 1 Binding Ki
[24] = Table 11C, read-out: S2 binding Ki
[25] = Table 11D, read-out: Sigma-2 Receptor Ki
[26] = known prior art compounds, published studies, read-out: Sigma 2 Binding Ki
[27] = Rattus norvegicus, Hippocampal neuron, Table 11C

Sequence of NMDAR2B (Q13224 27-1484, species assumed, other chains not shown): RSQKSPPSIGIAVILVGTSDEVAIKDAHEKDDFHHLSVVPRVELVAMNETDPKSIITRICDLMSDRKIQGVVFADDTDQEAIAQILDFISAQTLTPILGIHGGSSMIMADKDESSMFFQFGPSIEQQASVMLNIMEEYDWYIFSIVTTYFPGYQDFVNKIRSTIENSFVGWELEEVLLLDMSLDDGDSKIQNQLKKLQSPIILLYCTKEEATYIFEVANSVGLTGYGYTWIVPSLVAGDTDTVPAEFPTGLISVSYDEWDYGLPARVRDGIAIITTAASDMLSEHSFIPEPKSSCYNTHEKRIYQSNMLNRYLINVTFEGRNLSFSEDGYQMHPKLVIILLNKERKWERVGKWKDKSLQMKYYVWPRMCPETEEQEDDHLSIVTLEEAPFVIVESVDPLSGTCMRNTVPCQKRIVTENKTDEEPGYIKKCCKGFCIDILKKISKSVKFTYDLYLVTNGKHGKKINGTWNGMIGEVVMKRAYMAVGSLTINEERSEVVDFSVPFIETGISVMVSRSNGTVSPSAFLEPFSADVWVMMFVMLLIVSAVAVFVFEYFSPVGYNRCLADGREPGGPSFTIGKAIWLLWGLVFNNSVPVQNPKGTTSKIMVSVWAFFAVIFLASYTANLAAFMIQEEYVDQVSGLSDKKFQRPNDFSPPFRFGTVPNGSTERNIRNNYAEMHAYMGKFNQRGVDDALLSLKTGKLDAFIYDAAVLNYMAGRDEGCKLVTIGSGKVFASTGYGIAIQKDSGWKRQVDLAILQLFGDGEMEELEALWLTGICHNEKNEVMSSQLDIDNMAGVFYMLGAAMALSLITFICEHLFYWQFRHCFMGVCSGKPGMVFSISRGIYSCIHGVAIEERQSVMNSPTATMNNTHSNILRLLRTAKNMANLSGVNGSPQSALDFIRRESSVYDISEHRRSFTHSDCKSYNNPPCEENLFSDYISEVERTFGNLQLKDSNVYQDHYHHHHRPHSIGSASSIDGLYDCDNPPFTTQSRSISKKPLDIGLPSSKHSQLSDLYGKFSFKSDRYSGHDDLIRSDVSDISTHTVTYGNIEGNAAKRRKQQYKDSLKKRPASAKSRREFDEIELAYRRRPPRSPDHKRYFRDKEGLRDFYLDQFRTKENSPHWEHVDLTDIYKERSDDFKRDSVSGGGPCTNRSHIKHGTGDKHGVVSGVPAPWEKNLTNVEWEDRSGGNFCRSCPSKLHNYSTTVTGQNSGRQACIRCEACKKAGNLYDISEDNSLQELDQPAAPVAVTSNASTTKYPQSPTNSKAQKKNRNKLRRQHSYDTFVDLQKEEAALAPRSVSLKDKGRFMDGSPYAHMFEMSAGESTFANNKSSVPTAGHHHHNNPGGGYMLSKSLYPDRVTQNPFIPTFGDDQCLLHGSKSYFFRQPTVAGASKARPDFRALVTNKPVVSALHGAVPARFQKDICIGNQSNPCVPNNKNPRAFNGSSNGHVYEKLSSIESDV

CN(C)CC1CCOC1(c1ccccc1)c1ccccc1 (centres unmarked) [Anavex 2-73]
Other Targets: NMDAR2B [1]: NMDAR2B (8 uM | Other Targets: Na + ch2 [2]: (5 uM) | Ki [3]: 0.86 µM | Ki [4]: > 20 µM | Other Targets: muscarinic M1-M4 [5]: (3-5 uM),

CCC(Oc1ccc(Cl)cc1)C(=O)OC1CC2CCC(C1)N2C (centres unmarked) [SM-21]
Abeta oligomer-induced synapse loss eliminated / recovery ([6]; b801): 20% | Max Inhibition of Abeta (%) [7]: 65% | Functional Neuronal Phenotype ([7]; Table 11C): Antagonist | EC50 ([7]; Table 11C): 2.2 µM | Functional Neuronal Phenotype ([7]; Table 11D): Antagonist | IC50 [7, 20]: 2.2 µM | Selectivity other activities [8]: Muscarinic | Ki [9, 21]: 1.05 µM | Ki [9, 22]: 1.05 µM | Ki [9, 23]: 1.05 µM | Sigma 1 (Type of Activity) [3]: (antagonist) | Ki [10, 24]: 0.145 µM | Ki [10, 25]: 0.145 µM | Ki [10, 26]: 0.145 µM

CN(C)CCN(C)CCc1ccc(Cl)c(Cl)c1 [BD1047]
Max Inhibition of Abeta (%) [7]: 100% | Functional Neuronal Phenotype ([7]; Table 11C): Antagonist | EC50 ([7]; Table 11C): 2.4 µM | Functional Neuronal Phenotype ([7]; Table 11D): Antagonist | IC50 [7, 20]: 2.4 µM | Selectivity other activities [8]: D2, β3-AR | Ki [9, 21]: 0.0009 µM | Ki [9, 22]: 0.0009 µM | Ki [9, 23]: 0.0009 µM | Sigma 1 (Type of Activity) [3]: (antagonist) | Ki [10, 24]: 0.047 µM | Ki [10, 25]: 0.047 µM | Ki [10, 26]: 0.047 µM

CC(C)=CCN1CCC2(C)c3cc(O)ccc3CC1C2C (single isomer, unassigned; (+)) [(+) Pentazocine, (+)-pentazocine]
IC50 ([7]; Rattus norvegicus, Hippocampal neuron, read-out: Membrane trafficking IC50 (uM)): 7.6 µM | Functional Neuronal Phenotype ([7]; Table 11D): Antagonist | Drug-like properties [11]: Yes | Ki ([10]; read-out: Sigma-2 Receptor Ki, Table 11D): > 5 µM

COCCCC/C(=N\OCCN)c1ccc(C(F)(F)F)cc1 [Fluvoxamine, fluvoxamine]
EC50 [7, 27]: 2.5 µM | IC50 ([7]; Rattus norvegicus, Hippocampal neuron, Table 11D, read-out: Membrane trafficking IC50): 2.5 µM | Functional Neuronal Phenotype ([7]; Table 11C): Antagonist | Functional Neuronal Phenotype ([7]; Table 11D): Antagonist | Other Targets: serotonin transporter [12]: nM), Serotonin (12 | Other Targets: Adrenergic transporter [13]: transporter (299 nM | Ki [9, 21]: 0.013 µM | Ki [9, 22]: 0.013 µM | Ki [9, 23]: 0.013 µM | Sigma 1 (Type of Activity) [3]: (agonist) | Ki [4]: 0.71 µM | Other Targets: Dopamine transporter [14]: transporter (1.5 nM

COc1ccc(C)cc1NC(=O)OC1CC2CCCC(C1)N2CCCCCCN (centres unmarked) [SV-119]
Effect on Abeta oligomer trafficking deficits over the concentrations tested [7]: blocks Abeta oligomer trafficking deficits at low concentrations, but causes cellular toxicity at high concentrations | EC50 [7, 27]: 2.6 µM | Functional Neuronal Phenotype ([7]; Table 11C): Agonist | Ki [9, 21]: 1.4 µM | IC50 ([15]; Homo sapiens, SK-OV-3, tumor cell viability, 48 hrs): 21.7 ± 2.9 µM | Action ([15]; by EC50 relative to siramesine): Full agonist | Ki ([10]; read-out: S2 binding Ki, Table 11C): 0.008 µM | Caspase-3 activity induced in neurons [16]: caspase-3 activation | Caspase-3 activity induced in tumor cells [17]: caspase-3 activation | Nuclear morphology / nuclear intensity in neurons [18]: caused significant abnormal nuclear morphology

C[C@@H]([C@@H](O)c1ccc(O)cc1)N1CCC(Cc2ccccc2)CC1 [Threo-ifenprodil (TIF), Threo-ifenprodil]
Effect on Abeta oligomer trafficking deficits over the concentrations tested [7]: does not cause apoptosis, affect trafficking or interfere with Abeta oligomer-induced trafficking deficits when dosed alone | Max Inhibition of Abeta (%) [7]: 39% | Functional Neuronal Phenotype ([7]; Table 11C): Inactive | EC50 ([7]; Table 11C): > 20 µM | Affinity K+ ch [19]: 88 nM | Sigma 2 type of activity ([4]; in brackets after the Ki): agonist

CN(C)CC1COC(c2ccccc2)(c2ccccc2)C1 (centres unmarked) [Anavex 1-41]
Other Targets: Na + ch2 [2]: ch2 (>10 uM) | Ki [3]: 0.007 µM | Ki [4]: > 10 µM | Other Targets: muscarinic M1-M4 [5]: (18-114 nM), Na +

O=C(CCCN1CCC(O)(c2ccc(Cl)cc2)CC1)c1ccc(F)cc1 [Haloperidol, haloperidol]
Effect on Abeta oligomer-induced synapse loss [6]: completely eliminated synapse loss | Max Inhibition of Abeta (%) [7]: 100% | Functional Neuronal Phenotype ([7]; Table 11C): Antagonist | Functional Neuronal Phenotype ([7]; Table 11D): Antagonist | Sigma 1 (Type of Activity) [3]: (antagonist) | Drug-like properties [11]: Yes
